{"source": "patent US9078845B2", "about": "“Anti-microbial agent” (priority 2005, dated 2015)", "key": {"Pseudomonas aeruginosa": {"test_system": "Pseudomonas aeruginosa", "assay": "suspension test", "type": "cell-based", "conditions": "after 30 mins", "protocol": "The compositions were tested for antimicrobial activity using the suspension test in Example 3 outlined at room temperature against the following organisms:\nThe anti-microbial activity of a-linolenic acid and terpinen-4-ol separately and in combination were tested using the suspension test as outlined in Example 3 above."}, "[1]": {"test_system": "Staphylococcus aureus ATCC 6538", "conditions": "48 hours at 37° C."}, "[2]": {"test_system": "Methicillin Resistant Staphylococcus Wild Strain", "conditions": "48 hours at 37° C."}, "Morazella Catarrhalis": {"test_system": "Morazella Catarrhalis", "conditions": "48 hours at 37° C."}, "[3]": {"test_system": "Escherichia coli ATCC 8739", "conditions": "48 hours at 37° C."}, "[4]": {"test_system": "Streptococcus pyogenes University of Melbourne MDU", "conditions": "48 hours at 37° C."}, "[5]": {"test_system": "Salmonella cholerae-suis ATCC 10708", "assay": "Minimum Inhibitory Concentration Test (broth dilution, turbidity)", "type": "cell-based", "conditions": "48 hours at 37° C."}, "[6]": {"conditions": "dilution 1:100 in Tryptone Soya broth"}, "[7]": {"conditions": "dilution 1:200 in Tryptone Soya broth"}, "[8]": {"conditions": "dilution 1:400 in Tryptone Soya broth"}, "[9]": {"conditions": "dilution 1:800 in Tryptone Soya broth"}, "[10]": {"conditions": "dilution 1:1600 in Tryptone Soya broth"}, "[11]": {"conditions": "dilution 1:3200 in Tryptone Soya broth"}, "[12]": {"conditions": "dilution 1:6400 in Tryptone Soya broth"}, "[13]": {"conditions": "dilution 1:12800 in Tryptone Soya broth"}, "[14]": {"conditions": "dilution 1:25600 in Tryptone Soya broth"}, "[15]": {"conditions": "dilution 1:102400 in Tryptone Soya broth"}, "[16]": {"conditions": "dilution 1:51200 in Tryptone Soya broth"}}, "data": [{"smiles": "CC1=CCC(O)(C(C)C)CC1", "note": "(stereo not drawn) [terpinen-4-ol]", "values": [{"measurement": "reduction in the survival of P. aeruginosa", "setting": "Pseudomonas aeruginosa", "result": 1, "unit": "log10"}]}, {"smiles": "CC/C=C\\C/C=C\\C/C=C\\CCCCCCCC(=O)O", "note": "[α-linolenic acid]", "values": [{"measurement": "Growth (turbidity) at Dilution 1:100", "setting": "[1]; [6]", "result": "−"}, {"measurement": "Growth (turbidity) at Dilution 1:200", "setting": "[1]; [7]", "result": "−"}, {"measurement": "Growth (turbidity) at Dilution 1:400", "setting": "[1]; [8]", "result": "−"}, {"measurement": "Growth (turbidity) at Dilution 1:800", "setting": "[1]; [9]", "result": "−"}, {"measurement": "Growth (turbidity) at Dilution 1:1600", "setting": "[1]; [10]", "result": "−"}, {"measurement": "Growth (turbidity) at Dilution 1:3200", "setting": "[1]; [11]", "result": "−"}, {"measurement": "Growth (turbidity) at Dilution 1:6400", "setting": "[1]; [12]", "result": "−"}, {"measurement": "Growth (turbidity) at Dilution 1:12800", "setting": "[1]; [13]", "result": "−"}, {"measurement": "Growth (turbidity) at Dilution 1:25600", "setting": "[1]; [14]", "result": "−"}, {"measurement": "Growth (turbidity) at Dilution 1:102400", "setting": "[1]; [15]", "result": "+"}, {"measurement": "Growth (turbidity) at Dilution 1:100", "setting": "[2]; [6]", "result": "−"}, {"measurement": "Growth (turbidity) at Dilution 1:200", "setting": "[2]; [7]", "result": "−"}, {"measurement": "Growth (turbidity) at Dilution 1:400", "setting": "[2]; [8]", "result": "−"}, {"measurement": "Growth (turbidity) at Dilution 1:800", "setting": "[2]; [9]", "result": "−"}, {"measurement": "Growth (turbidity) at Dilution 1:1600", "setting": "[2]; [10]", "result": "−"}, {"measurement": "Growth (turbidity) at Dilution 1:3200", "setting": "[2]; [11]", "result": "−"}, {"measurement": "Growth (turbidity) at Dilution 1:6400", "setting": "[2]; [12]", "result": "−"}, {"measurement": "Growth (turbidity) at Dilution 1:12800", "setting": "[2]; [13]", "result": "−"}, {"measurement": "Growth (turbidity) at Dilution 1:25600", "setting": "[2]; [14]", "result": "−"}, {"measurement": "Growth (turbidity) at Dilution 1:51200", "setting": "[2]; [16]", "result": "−"}, {"measurement": "Growth (turbidity) at Dilution 1:102400", "setting": "[2]; [15]", "result": "+"}, {"measurement": "Growth (turbidity) at Dilution 1:100", "setting": "Morazella Catarrhalis; [6]", "result": "−"}, {"measurement": "Growth (turbidity) at Dilution 1:200", "setting": "Morazella Catarrhalis; [7]", "result": "−"}, {"measurement": "Growth (turbidity) at Dilution 1:400", "setting": "Morazella Catarrhalis; [8]", "result": "−"}, {"measurement": "Growth (turbidity) at Dilution 1:800", "setting": "Morazella Catarrhalis; [9]", "result": "−"}, {"measurement": "Growth (turbidity) at Dilution 1:1600", "setting": "Morazella Catarrhalis; [10]", "result": "−"}, {"measurement": "Growth (turbidity) at Dilution 1:3200", "setting": "Morazella Catarrhalis; [11]", "result": "−"}, {"measurement": "Growth (turbidity) at Dilution 1:6400", "setting": "Morazella Catarrhalis; [12]", "result": "−"}, {"measurement": "Growth (turbidity) at Dilution 1:12800", "setting": "Morazella Catarrhalis; [13]", "result": "+"}, {"measurement": "Growth (turbidity) at Dilution 1:25600", "setting": "Morazella Catarrhalis; [14]", "result": "+"}, {"measurement": "Growth (turbidity) at Dilution 1:51200", "setting": "Morazella Catarrhalis; [16]", "result": "+"}, {"measurement": "Growth (turbidity) at Dilution 1:102400", "setting": "Morazella Catarrhalis; [15]", "result": "+"}, {"measurement": "Growth (turbidity) at Dilution 1:100", "setting": "[3]; [6]", "result": "+"}, {"measurement": "Growth (turbidity) at Dilution 1:200", "setting": "[3]; [7]", "result": "+"}, {"measurement": "Growth (turbidity) at Dilution 1:400", "setting": "[3]; [8]", "result": "+"}, {"measurement": "Growth (turbidity) at Dilution 1:800", "setting": "[3]; [9]", "result": "+"}, {"measurement": "Growth (turbidity) at Dilution 1:1600", "setting": "[3]; [10]", "result": "+"}, {"measurement": "Growth (turbidity) at Dilution 1:3200", "setting": "[3]; [11]", "result": "+"}, {"measurement": "Growth (turbidity) at Dilution 1:6400", "setting": "[3]; [12]", "result": "+"}, {"measurement": "Growth (turbidity) at Dilution 1:12800", "setting": "[3]; [13]", "result": "+"}, {"measurement": "Growth (turbidity) at Dilution 1:25600", "setting": "[3]; [14]", "result": "+"}, {"measurement": "Growth (turbidity) at Dilution 1:51200", "setting": "[3]; [16]", "result": "+"}, {"measurement": "Growth (turbidity) at Dilution 1:102400", "setting": "[3]; [15]", "result": "+"}, {"measurement": "Growth (turbidity) at Dilution 1:100", "setting": "[4]; [6]", "result": "−"}, {"measurement": "Growth (turbidity) at Dilution 1:200", "setting": "[4]; [7]", "result": "−"}, {"measurement": "Growth (turbidity) at Dilution 1:400", "setting": "[4]; [8]", "result": "−"}, {"measurement": "Growth (turbidity) at Dilution 1:800", "setting": "[4]; [9]", "result": "−"}, {"measurement": "Growth (turbidity) at Dilution 1:1600", "setting": "[4]; [10]", "result": "−"}, {"measurement": "Growth (turbidity) at Dilution 1:3200", "setting": "[4]; [11]", "result": "−"}, {"measurement": "Growth (turbidity) at Dilution 1:6400", "setting": "[4]; [12]", "result": "−"}, {"measurement": "Growth (turbidity) at Dilution 1:12800", "setting": "[4]; [13]", "result": "−"}, {"measurement": "Growth (turbidity) at Dilution 1:51200", "setting": "[4]; [16]", "result": "+"}, {"measurement": "Growth (turbidity) at Dilution 1:102400", "setting": "[4]; [15]", "result": "+"}, {"measurement": "reduction in the survival of P. aeruginosa", "setting": "Pseudomonas aeruginosa", "result": 1, "unit": "log10"}, {"measurement": "Growth (turbidity) at Dilution 1:100", "setting": "[5]; [6]", "result": "−"}, {"measurement": "Growth (turbidity) at Dilution 1:200", "setting": "[5]; [7]", "result": "−"}, {"measurement": "Growth (turbidity) at Dilution 1:400", "setting": "[5]; [8]", "result": "+"}, {"measurement": "Growth (turbidity) at Dilution 1:800", "setting": "[5]; [9]", "result": "+"}, {"measurement": "Growth (turbidity) at Dilution 1:1600", "setting": "[5]; [10]", "result": "+"}, {"measurement": "Growth (turbidity) at Dilution 1:3200", "setting": "[5]; [11]", "result": "+"}, {"measurement": "Growth (turbidity) at Dilution 1:6400", "setting": "[5]; [12]", "result": "+"}, {"measurement": "Growth (turbidity) at Dilution 1:12800", "setting": "[5]; [13]", "result": "+"}, {"measurement": "Growth (turbidity) at Dilution 1:25600", "setting": "[5]; [14]", "result": "+"}, {"measurement": "Growth (turbidity) at Dilution 1:51200", "setting": "[5]; [16]", "result": "+"}, {"measurement": "Growth (turbidity) at Dilution 1:102400", "setting": "[5]; [15]", "result": "+"}]}]}
